Key:
Conditions in all cases: 72 h
Caco-2 [1] = experiment: cell viability relative to DMSO; higher = less toxic
Calu-3 [2] = experiment: as above
HepG2 [3] = experiment: as above
U2OS [4] = experiment: as above
Vero E6 [5] = experiment: as above
Caco-2 [6] = experiment: relative viability EC50 (midpoint between 100% and the lowest measured viability); higher = less toxic
Calu-3 [7] = experiment: as above
HepG2 [8] = experiment: as above
Vero E6 [9] = experiment: as above
Caco-2 [10] = experiment: drug sensitivity score (DSS) for viability; higher = more toxic; extreme values may be limits of the assay
Calu-3 [11] = experiment: as above
HepG2 [12] = experiment: as above
U2OS [13] = experiment: as above
Vero E6 [14] = experiment: as above
U2OS [15] = experiment: relative viability EC50 (midpoint between 100% and the lowest measured viability); higher = less toxic

O=C1NC(=O)/C(=C/c2ccc3c(c2)OC(F)(F)O3)S1
cell viability (Caco-2 [1]; 1 nM): 94.5% | cell viability (Caco-2 [1]; 10 nM): 97.9% | cell viability (Caco-2 [1]; 100 nM): 84.6% | cell viability (Caco-2 [1]; 1000 nM): 81% | cell viability (Caco-2 [1]; 10000 nM): 35.1% | cell viability (Calu-3 [2]; 1 nM): 97.4% | cell viability (Calu-3 [2]; 10 nM): 89.3% | cell viability (Calu-3 [2]; 100 nM): 46.8% | cell viability (Calu-3 [2]; 1000 nM): 30.5% | cell viability (Calu-3 [2]; 10000 nM): 24.7% | cell viability (HepG2 [3]; 1 nM): 95.8% | cell viability (HepG2 [3]; 10 nM): 95.6% | cell viability (HepG2 [3]; 100 nM): 101% | cell viability (HepG2 [3]; 1000 nM): 98.9% | cell viability (HepG2 [3]; 10000 nM): 75.2% | cell viability (U2OS [4]; 1 nM): 94.3% | cell viability (U2OS [4]; 10 nM): 96.2% | cell viability (U2OS [4]; 100 nM): 89.6% | cell viability (U2OS [4]; 1000 nM): 91.2% | cell viability (U2OS [4]; 10000 nM): 51.3% | cell viability (Vero E6 [5]; 1 nM): 103% | cell viability (Vero E6 [5]; 10 nM): 94.6% | cell viability (Vero E6 [5]; 100 nM): 87.8% | cell viability (Vero E6 [5]; 1000 nM): 63% | cell viability (Vero E6 [5]; 10000 nM): 45.1% | relative viability EC50 (Caco-2 [6]): 1.62 µM | relative viability EC50 (Calu-3 [7]): 0.0473 µM | relative viability EC50 (HepG2 [8]): > 10 µM | relative viability EC50 (Vero E6 [9]): 0.401 µM | drug sensitivity score (Caco-2 [10]): 5.6 | drug sensitivity score (Calu-3 [11]): 20.7 | drug sensitivity score (HepG2 [12]): 1.1 | drug sensitivity score (U2OS [13]): 4 | drug sensitivity score (Vero E6 [14]): 8.2

CCC[C@@H]1C[C@@H](C(=O)N[C@@H]([C@H]2O[C@H](SC)[C@H](O)[C@@H](O)[C@H]2O)[C@@H](C)O)N(C)C1 [lincomycin]
cell viability (Caco-2 [1]; 1 nM): 111% | cell viability (Caco-2 [1]; 10 nM): 94.2% | cell viability (Caco-2 [1]; 100 nM): 107% | cell viability (Caco-2 [1]; 1000 nM): 97.2% | cell viability (Caco-2 [1]; 10000 nM): 111% | cell viability (Calu-3 [2]; 1 nM): 99.5% | cell viability (Calu-3 [2]; 10 nM): 92.6% | cell viability (Calu-3 [2]; 100 nM): 99.1% | cell viability (Calu-3 [2]; 1000 nM): 98.7% | cell viability (Calu-3 [2]; 10000 nM): 103% | cell viability (Vero E6 [5]; 1 nM): 97.6% | cell viability (Vero E6 [5]; 10 nM): 103% | cell viability (Vero E6 [5]; 100 nM): 94.9% | cell viability (Vero E6 [5]; 1000 nM): 89.6% | cell viability (Vero E6 [5]; 10000 nM): 101% | relative viability EC50 (Caco-2 [6]): > 10 µM | relative viability EC50 (Calu-3 [7]): > 10 µM | relative viability EC50 (Vero E6 [9]): > 10 µM | drug sensitivity score (Caco-2 [10]): 0 | drug sensitivity score (Calu-3 [11]): 0 | drug sensitivity score (Vero E6 [14]): 0

CCCCN(CCCC)CCC(O)c1cc2c(Cl)cc(Cl)cc2c2cc(C(F)(F)F)ccc12 (stereo not drawn) [halofantrine]
cell viability (Caco-2 [1]; 1 nM): 95% | cell viability (Caco-2 [1]; 10 nM): 122% | cell viability (Caco-2 [1]; 100 nM): 104% | cell viability (Caco-2 [1]; 1000 nM): 106% | cell viability (Caco-2 [1]; 10000 nM): 88.7% | cell viability (Calu-3 [2]; 1 nM): 90.1% | cell viability (Calu-3 [2]; 10 nM): 93.3% | cell viability (Calu-3 [2]; 100 nM): 103% | cell viability (Calu-3 [2]; 1000 nM): 109% | cell viability (Calu-3 [2]; 10000 nM): 88.1% | cell viability (HepG2 [3]; 1 nM): 95.5% | cell viability (HepG2 [3]; 10 nM): 82.1% | cell viability (HepG2 [3]; 100 nM): 97.4% | cell viability (HepG2 [3]; 1000 nM): 92.1% | cell viability (HepG2 [3]; 10000 nM): 71.8% | cell viability (U2OS [4]; 1 nM): 95.2% | cell viability (U2OS [4]; 10 nM): 102% | cell viability (U2OS [4]; 100 nM): 99.5% | cell viability (U2OS [4]; 1000 nM): 96.3% | cell viability (U2OS [4]; 10000 nM): 88% | cell viability (Vero E6 [5]; 1 nM): 109% | cell viability (Vero E6 [5]; 10 nM): 103% | cell viability (Vero E6 [5]; 100 nM): 99.9% | cell viability (Vero E6 [5]; 1000 nM): 83.3% | cell viability (Vero E6 [5]; 10000 nM): 83.8% | relative viability EC50 (Caco-2 [6]): > 10 µM | relative viability EC50 (Calu-3 [7]): > 10 µM | relative viability EC50 (U2OS [15]): > 10 µM | relative viability EC50 (Vero E6 [9]): > 10 µM | drug sensitivity score (Caco-2 [10]): 0 | drug sensitivity score (Calu-3 [11]): 0 | drug sensitivity score (HepG2 [12]): 2.1 | drug sensitivity score (U2OS [13]): 0.2 | drug sensitivity score (Vero E6 [14]): 1.9

C=CC1=C(C)c2cc3[nH]c(cc4nc(cc5[nH]c(cc1n2)c(C)c5CCC(=O)O)C(CCC(=O)O)=C4C)c(C)c3C=C [protoporphyrin-IX]
cell viability (Caco-2 [1]; 1 nM): 101% | cell viability (Caco-2 [1]; 10 nM): 102% | cell viability (Caco-2 [1]; 100 nM): 92.7% | cell viability (Caco-2 [1]; 1000 nM): 94.4% | cell viability (Caco-2 [1]; 10000 nM): 76.4% | cell viability (Calu-3 [2]; 1 nM): 97.4% | cell viability (Calu-3 [2]; 10 nM): 93.8% | cell viability (Calu-3 [2]; 100 nM): 105% | cell viability (Calu-3 [2]; 1000 nM): 97.5% | cell viability (Calu-3 [2]; 10000 nM): 84.1% | cell viability (HepG2 [3]; 1 nM): 102% | cell viability (HepG2 [3]; 10 nM): 91.1% | cell viability (HepG2 [3]; 100 nM): 105% | cell viability (HepG2 [3]; 1000 nM): 94.2% | cell viability (HepG2 [3]; 10000 nM): 84.6% | cell viability (U2OS [4]; 1 nM): 101% | cell viability (U2OS [4]; 10 nM): 101% | cell viability (U2OS [4]; 100 nM): 98.2% | cell viability (U2OS [4]; 1000 nM): 101% | cell viability (U2OS [4]; 10000 nM): 88.6% | cell viability (Vero E6 [5]; 1 nM): 99.8% | cell viability (Vero E6 [5]; 10 nM): 71.4% | cell viability (Vero E6 [5]; 100 nM): 110% | cell viability (Vero E6 [5]; 1000 nM): 75.2% | cell viability (Vero E6 [5]; 10000 nM): 78.6% | relative viability EC50 (Caco-2 [6]): > 10 µM | relative viability EC50 (Calu-3 [7]): > 10 µM | relative viability EC50 (HepG2 [8]): > 10 µM | relative viability EC50 (U2OS [15]): > 10 µM | drug sensitivity score (Caco-2 [10]): 1.4 | drug sensitivity score (Calu-3 [11]): 0.6 | drug sensitivity score (HepG2 [12]): 0.8 | drug sensitivity score (U2OS [13]): 0 | drug sensitivity score (Vero E6 [14]): 2.6
